Each block holds one compound with its values, some of them ahead of it.
Tests used:
[1] = tested on: atrial muscle of anesthetized thoracotomy dog; test: Effective refractory period (ERP) in anesthetized thoracotomy dog; assay type: in vivo; conditions: for Measurement Value of ERP: mean
Excerpt: (1) An anesthetized thoracotomy dog was used for the present experiment. After opening brisket at a median line and cutting epicardium, bipolar electrodes for determination of a potential wave form were respectively stitched at the free walls of right and left atriums. Further, a wire electrode was inserted in the free wall of a right atrium to be fixed and used for electrical simulation.
(2) A program electrical stimulation equipment was connected with the electrode for electrical stimulation at the right atrium, the electrical stimulation was carried out at a stimulation periodical length of 500 mess, and a threshold for the electrical stimulation was measured. The electrical stimulation intensity for the experiments below was set to carry out stimulation at 3-fold of this threshold. However, when the threshold was 0.7 V or less, the electrical stimulation was carried out at 2.0 V. Effective refractory period (ERP) provided early premature stimulation (S2) after the basic stimulation (S1) of 10 times, and the longest linking period in which atrium potential was not generated by the premature stimulation was referred to as ERP, while shortening the linking period (S1-S2) by 5 mess. Similar experiments were also carried out for the respective basic stimulation length (BCL) of 400, 300, 250 and 200 mess (control experiment: 1 series). After carrying out 2 times or more of the control experiments and confirming that ERP was stable, the tested substance was subsequently administered, and similar measurement was carried out. After the tested substance was administered once intravenously for 5 minutes, its keeping dose was subsequently administered intravenously. After 10 minutes of the administration start of the keeping dose, ERP was measured in the respective stimulation frequency. After completion of the one series of measurements, the concentration of the tested substance was increased and the similar experiments were repeated. The ERP and conduction time in the atrium in the respective stimulation frequency were compared with various indices under control condition. The result is shown by mean.

[2] = tested on: rabbit atrial muscle; test: Assessment for rabbit atrial muscle, Vmax; conditions: Test Example 4, right atrial muscle, stimulation frequency 4 Hz, 15 minutes
Experimental: The specimen of the right atrial muscle which was enucleated from rabbit was used for the present experiment. The electrical stimulation was applied for the right atrial muscle which was enucleated, under conditions: a stimulation duration of 1 mess; a stimulation frequency of 4 Hz; and a stimulation intensity of about 1.2-fold of the threshold. The stimulation was provided from 30 minutes to 60 minutes before start of the experiment, and the condition of the specimen was stabilized. The action potential was recorded according to a glass microelectrode method. 3 M KCl was charged in the glass electrode, inserted in the specimen of the right atrium, and the action potential was recorded. Vmax is the parameter of the maximum upstroke slope of the action potential recorded, and a value which was automatically calculated by an action potential analysis soft (CAPA 1.23 manufactured by Physiotec. Co., Ltd.) was used. After the action potential in a normal Tyrode solution was recorded as control, the action potential after flowing the tested substances at respective concentrations for 15 minutes was recorded. The action of the tested substance for Vmax was calculated as an IC50 value.

[3] = tested on: spontaneous nerve discharge of cut left saphenous nerve; test: Suppression of spontaneous nerve discharge (ectopic firing); assay type: in vivo; conditions: Test Example 5, rat, intravenous catheter, urethane anesthetized; for ED50: read-out: Ectopic Firing (ID50 mg/kg)
Experimental: In order to assess the suppression action for spontaneous nerve discharge, the experiment was carried out by a method below, referring to “Burchiel, K J., Exp. Nuerol., 102, 249-253 (1988)”. Namely, for the rat in which spontaneous discharge was observed, the left saphenous nerve was cut off nearby knee articulatio before 1 week or more, and around 3 mm of the nerve was cut off so that the nerve was not adhered again. The left saphenous nerve was exposed under urethane (1 g/kg body weight) anesthetized, and about 1 cm of adjacent portion from the cut portion was peeled from a periphery tissue. Further, a catheter was preliminarily inserted in the vein of a right neck for administration of a compound. The peeled nerve was mounted on a platinum hook electrode, and liquid paraffin was put on it so that the nerve was not dried. The electrode was connected with a fine electrode amplifier, and the value was recorded on a computer through an AD/converter from an oscilloscope. The nerve discharge recorded was assessed by the number of ignition per 10 seconds using an analysis soft (AcqKnowledge).

[4] = dose 0.1 mg/kg intravenously, BCL 200 msec
[5] = dose 0.1 mg/kg intravenously, BCL 300 msec
[6] = dose 0.1 mg/kg intravenously, BCL 400 msec
[7] = dose 0.1 mg/kg intravenously, BCL 500 msec
[8] = dose 0.3 mg/kg intravenously, BCL 200 msec
[9] = dose 0.3 mg/kg intravenously, BCL 300 msec
[10] = dose 0.3 mg/kg intravenously, BCL 400 msec
[11] = dose 0.3 mg/kg intravenously, BCL 500 msec
[12] = dose 1 mg/kg intravenously, BCL 200 msec
[13] = dose 1 mg/kg intravenously, BCL 300 msec
[14] = dose 1 mg/kg intravenously, BCL 400 msec
[15] = dose 1 mg/kg intravenously, BCL 500 msec
[16] = dose 0.1 mg/kg intravenously, BCL 250 msec
[17] = dose 0.3 mg/kg intravenously, BCL 250 msec

SMILES: O=c1[nH]cccc1CN1CCC(CCc2nccs2)CC1 [Example 109, 1-[(2-Oxo-1,2-dihydro-3-pyridinyl)methyl]-4-[2-(1,3-thiazol-2-yl)ethyl]piperidine]
Measurement Value of ERP [1, 4]: 110 ms | Measurement Value of ERP [1, 5]: 140 ms | Measurement Value of ERP [1, 6]: 165 ms | Measurement Value of ERP [1, 7]: 185 ms | Measurement Value of ERP [1, 8]: 130 ms | Measurement Value of ERP [1, 9]: 155 ms | Measurement Value of ERP [1, 10]: 185 ms | Measurement Value of ERP [1, 11]: 200 ms | Measurement Value of ERP [1, 12]: 150 ms | Measurement Value of ERP [1, 13]: 175 ms | Measurement Value of ERP [1, 14]: 215 ms | Measurement Value of ERP [1, 15]: 235 ms

SMILES: COc1ncccc1CCC1CCN(Cc2ccc[nH]c2=O)CC1 [Example 118, 1-[(2-Oxo-1,2-dihydro-3-pyridinyl)methyl]-4-[2-(2-methoxy-3-pyridyl)ethyl]piperidine]
Measurement Value of ERP [1, 8]: 130 ms | Measurement Value of ERP [1, 9]: 160 ms | Measurement Value of ERP [1, 10]: 180 ms | Measurement Value of ERP [1, 11]: 190 ms | Measurement Value of ERP [1, 13]: 190 ms | Measurement Value of ERP [1, 14]: 215 ms | Measurement Value of ERP [1, 15]: 220 ms

SMILES: O=c1[nH]cccc1CN1CCC(CCc2cccc3c2OCO3)CC1 [Example 128, 1-[(2-Oxo-1,2-dihydro-3-pyridinyl)methyl]-4-(2,3-methylenedioxyphenethyl)piperidine]
Measurement Value of ERP [1, 4]: 125 ms | Measurement Value of ERP [1, 5]: 160 ms | Measurement Value of ERP [1, 6]: 175 ms | Measurement Value of ERP [1, 7]: 185 ms | Measurement Value of ERP [1, 8]: 155 ms | Measurement Value of ERP [1, 9]: 180 ms | Measurement Value of ERP [1, 10]: 195 ms | Measurement Value of ERP [1, 11]: 210 ms | Measurement Value of ERP [1, 13]: 215 ms | Measurement Value of ERP [1, 14]: 250 ms | Measurement Value of ERP [1, 15]: 280 ms

SMILES: COc1ccccc1C(=O)CC1CCN(Cc2ccc[nH]c2=O)CC1 [Example 144, 1-[(2-Oxo-1,2-dihydro-3-pyridinyl)methyl]-4-[2-(2-methoxyphenyl)-2-oxoethyl]piperidine]
Measurement Value of ERP [1, 4]: 140 ms | Measurement Value of ERP [1, 16]: 155 ms | Measurement Value of ERP [1, 5]: 165 ms | Measurement Value of ERP [1, 6]: 190 ms | Measurement Value of ERP [1, 7]: 200 ms | Measurement Value of ERP [1, 8]: 155 ms | Measurement Value of ERP [1, 17]: 165 ms | Measurement Value of ERP [1, 9]: 180 ms | Measurement Value of ERP [1, 10]: 200 ms | Measurement Value of ERP [1, 11]: 215 ms

SMILES: C#CCN(CC#C)C(=O)C[C@H]1CCCCN1Cc1ccc[nH]c1=O [Example 191, N1,N1-Di(2-propynyl)-2-[(2R)-1-[(2-oxo-1,2-dihydro-3-pyridinyl)methyl]-2-piperidyl]acetamide]
Measurement Value of ERP [1, 8]: 135 ms | Measurement Value of ERP [1, 9]: 155 ms | Measurement Value of ERP [1, 10]: 165 ms | Measurement Value of ERP [1, 11]: 175 ms | Percent change in ERP versus pre-dose control ([1]; dose 0.3 mg/kg, BCL 300 msec): 14.8% | Percent change in ERP versus pre-dose control ([1]; dose 0.3 mg/kg, BCL 400 msec): 6.5% | Percent change in ERP versus pre-dose control ([1]; dose 0.3 mg/kg, BCL 500 msec): 9.4% | Measurement Value of ERP [1, 12]: 150 ms | Measurement Value of ERP [1, 13]: 170 ms | Measurement Value of ERP [1, 14]: 185 ms | Measurement Value of ERP [1, 15]: 195 ms | Percent change in ERP versus pre-dose control ([1]; dose 1 mg/kg, BCL 300 msec): 25.9% | Percent change in ERP versus pre-dose control ([1]; dose 1 mg/kg, BCL 400 msec): 19.4% | Percent change in ERP versus pre-dose control ([1]; dose 1 mg/kg, BCL 500 msec): 21.9%

SMILES: C#CCN(CC#C)C(=O)C[C@H]1CCCCN1Cc1cccn(CC(F)(F)F)c1=O [Example 194, N1,N1-Di(2-propynyl)-2-[(2R)-1-[[2-oxo-1-(2,2,2-trifluoroethyl)-1,2-dihydro-3-pyridinyl)methyl]hexahydro-2-pyridinyl]acetamide]
Measurement Value of ERP [1, 4]: 110 ms | Measurement Value of ERP [1, 16]: 120 ms | Measurement Value of ERP [1, 5]: 135 ms | Measurement Value of ERP [1, 6]: 155 ms | Measurement Value of ERP [1, 7]: 165 ms | Measurement Value of ERP [1, 8]: 125 ms | Measurement Value of ERP [1, 17]: 126 ms | Measurement Value of ERP [1, 9]: 145 ms | Measurement Value of ERP [1, 10]: 165 ms | Measurement Value of ERP [1, 11]: 175 ms | Measurement Value of ERP [1, 12]: 145 ms | Measurement Value of ERP ([1]; dose 1 mg/kg intravenously, BCL 250 msec): 155 ms | Measurement Value of ERP [1, 13]: 170 ms | Measurement Value of ERP [1, 14]: 195 ms | Measurement Value of ERP [1, 15]: 210 ms

IC50 ([2]; Oryctolagus cuniculus, 0.25 h): 17.5 µM
SMILES: O=c1[nH]cc(Cl)cc1CN1CCC(/C=C/c2ccccc2F)CC1 [Example 334, 1-[(5-Chloro-2-oxo-1,2-dihydro-3-pyridinyl)methyl]-4-[(E)-2-(2-fluorophenyl)-1-ethenyl]piperidine]
ED50 [3]: 0.03 mg/kg

IC50 ([2]; Oryctolagus cuniculus, 0.25 h): 7.8 µM
SMILES: O=c1[nH]cc(F)cc1CN1CCC(/C=C/c2ccccc2F)CC1 [Example 335, 1-[(5-Fluoro-2-oxo-1,2-dihydro-3-pyridinyl)methyl]-4-[(E)-2-(2-fluorophenyl)-1-ethenyl]piperidine]
ED50 [3]: 0.034 mg/kg

SMILES: Cc1ccccc1/C=C/C1CCN(Cc2cc(Cl)c[nH]c2=O)CC1 [Example 337, 1-[(5-Chloro-2-oxo-1,2-dihydro-3-pyridinyl)methyl]-4-[(E)-2-(2-methylphenyl)-1-ethenyl]piperidine]
ED50 [3]: 0.3 mg/kg

SMILES: O=C(O)C(=O)O.O=c1[nH]cccc1CN1CCC(/C=C/c2ccccc2OCC2CCCCC2)CC1 [Example 343, 1-[(2-Oxo-1,2-dihydro-3-pyridinyl)methyl]-4-[(E)-2-[(2-cyclohexylmethyloxy)phenyl]-1-ethenyl]piperidine oxalate]
IC50 [2]: 30 µM | Ectopic Firing (ID50 mg/kg) [3]: 0.13 mg/kg

SMILES: O=C(O)C(=O)O.O=c1[nH]cccc1CN1CCC(/C=C\c2ccccc2OCC2CCCCC2)CC1 [Example 344, 1-[(2-Oxo-1,2-dihydro-3-pyridinyl)methyl]-4-[(Z)-2-[(2-cyclohexylmethyloxy)phenyl]-1-ethenyl]piperidine oxalate]
IC50 [2]: 30 µM | Ectopic Firing (ID50 mg/kg) [3]: 0.19 mg/kg

SMILES: O=C(O)C(=O)O.O=c1[nH]cc(F)cc1CN1CCC(/C=C/c2ccccc2OCC2CCCCC2)CC1 [Example 345, 1-[(5-Fluoro-2-oxo-1,2-dihydro-3-pyridinyl)methyl]-4-[(E)-2-[(2-cyclohexylmethyloxy)phenyl]-1-ethenyl]piperidine oxalate]
Ectopic Firing (ID50 mg/kg) [3]: 0.4 mg/kg

SMILES: O=C(O)C(=O)O.O=c1[nH]cccc1CN1CCC(C#Cc2ccccc2OCC2CCCCC2)CC1 [Example 349, 1-[(2-Oxo-1,2-dihydro-3-pyridinyl)methyl]-4-[2-[(2-cyclohexylmethyloxy)phenyl]-1-ethynyl]piperidine oxalate]
Ectopic Firing (ID50 mg/kg) [3]: 0.17 mg/kg

SMILES: N#Cc1c[nH]c(=O)c(CN2CCC(/C=C/c3ccccc3F)CC2)c1 [Example 351, 1-[(5-Cyano-2-oxo-1,2-dihydro-3-pyridinyl)methyl]-4-[(E)-2-(2-fluorophenyl)-1-ethenyl]piperidine]
ED50 [3]: 0.17 mg/kg
